Reference: ChEMBL document CHEMBL4507281, “Data for DCP probe BI-4394” (2021)

Experiments:
[1] = target: MAP kinase-activated protein kinase 5 (Homo sapiens) (UniProt Q8IW41); settings: Compound concentration 100.0 nM
[2] = target: Mitogen-activated protein kinase 4 (Homo sapiens) (UniProt P31152); settings: Compound concentration 100.0 nM
[3] = target: Platelet-derived growth factor receptor beta (Homo sapiens) (UniProt P09619); settings: Compound concentration 100.0 nM
[4] = target: Mitogen-activated protein kinase kinase kinase 19 (Homo sapiens) (UniProt Q56UN5); settings: Compound concentration 100.0 nM
[5] = target: Calcium/calmodulin-dependent protein kinase kinase 2 (Homo sapiens) (UniProt Q96RR4); settings: Compound concentration 100.0 nM
[6] = target: Mitogen-activated protein kinase 13 (Homo sapiens) (UniProt O15264); settings: Compound concentration 100.0 nM
[7] = target: Alpha-2C adrenergic receptor (Homo sapiens) (UniProt P18825); settings: Compound concentration 10.0 uM
Sequence of Alpha-2C adrenergic receptor (Homo sapiens) (P18825 whole entry): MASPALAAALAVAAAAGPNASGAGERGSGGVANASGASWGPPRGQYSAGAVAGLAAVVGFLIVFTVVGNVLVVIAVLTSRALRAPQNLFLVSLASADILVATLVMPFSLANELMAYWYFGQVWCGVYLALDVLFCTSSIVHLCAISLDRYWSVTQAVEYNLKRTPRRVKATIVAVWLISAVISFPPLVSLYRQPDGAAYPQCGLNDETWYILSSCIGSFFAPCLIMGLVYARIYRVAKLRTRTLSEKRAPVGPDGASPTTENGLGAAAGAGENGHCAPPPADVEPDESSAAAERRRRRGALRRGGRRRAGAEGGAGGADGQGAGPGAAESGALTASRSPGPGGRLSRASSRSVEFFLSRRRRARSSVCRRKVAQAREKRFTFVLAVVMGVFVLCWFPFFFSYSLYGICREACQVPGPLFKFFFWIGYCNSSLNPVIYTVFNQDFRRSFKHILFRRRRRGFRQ

[8] = target: Uncharacterized serine/threonine-protein kinase SBK3 (Homo sapiens) (UniProt P0C264); settings: Compound concentration 100.0 nM
Sequence of Uncharacterized serine/threonine-protein kinase SBK3 (Homo sapiens) (P0C264 whole entry): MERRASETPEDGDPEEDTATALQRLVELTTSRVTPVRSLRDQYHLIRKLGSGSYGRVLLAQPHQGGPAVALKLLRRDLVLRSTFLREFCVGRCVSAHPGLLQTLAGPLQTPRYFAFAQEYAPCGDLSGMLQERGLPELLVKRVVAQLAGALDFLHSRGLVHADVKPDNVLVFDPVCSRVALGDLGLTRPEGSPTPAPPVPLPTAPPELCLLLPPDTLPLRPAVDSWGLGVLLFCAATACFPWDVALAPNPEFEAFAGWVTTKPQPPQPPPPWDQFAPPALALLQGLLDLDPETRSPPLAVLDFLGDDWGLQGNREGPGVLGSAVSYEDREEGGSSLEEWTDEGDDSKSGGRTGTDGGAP

[9] = target: G protein-coupled receptor kinase 3 (Homo sapiens) (UniProt P35626); settings: Compound concentration 100.0 nM
[10] = target: Mu-type opioid receptor (Homo sapiens) (UniProt P35372); settings: Compound concentration 10.0 uM
[11] = target: D(3) dopamine receptor (Homo sapiens) (UniProt P35462); settings: Compound concentration 10.0 uM
[12] = target: Mitogen-activated protein kinase kinase kinase 15 (Homo sapiens) (UniProt Q6ZN16); settings: Compound concentration 100.0 nM
[13] = target: Mitotic checkpoint serine/threonine-protein kinase BUB1 (Homo sapiens) (UniProt O43683); settings: Compound concentration 100.0 nM
[14] = target: Focal adhesion kinase 1 (Homo sapiens) (UniProt Q05397); settings: Compound concentration 100.0 nM
[15] = target: Calcium/calmodulin-dependent protein kinase type II subunit alpha (Homo sapiens) (UniProt Q9UQM7); settings: Compound concentration 100.0 nM
[16] = target: Wee1-like protein kinase 2 (Homo sapiens) (UniProt P0C1S8); settings: Compound concentration 100.0 nM
[17] = target: T1, Tyrosine-protein kinase ZAP-70 (Homo sapiens) (UniProt P43403); settings: Compound concentration 100.0 nM
T1 sequence (whole entry): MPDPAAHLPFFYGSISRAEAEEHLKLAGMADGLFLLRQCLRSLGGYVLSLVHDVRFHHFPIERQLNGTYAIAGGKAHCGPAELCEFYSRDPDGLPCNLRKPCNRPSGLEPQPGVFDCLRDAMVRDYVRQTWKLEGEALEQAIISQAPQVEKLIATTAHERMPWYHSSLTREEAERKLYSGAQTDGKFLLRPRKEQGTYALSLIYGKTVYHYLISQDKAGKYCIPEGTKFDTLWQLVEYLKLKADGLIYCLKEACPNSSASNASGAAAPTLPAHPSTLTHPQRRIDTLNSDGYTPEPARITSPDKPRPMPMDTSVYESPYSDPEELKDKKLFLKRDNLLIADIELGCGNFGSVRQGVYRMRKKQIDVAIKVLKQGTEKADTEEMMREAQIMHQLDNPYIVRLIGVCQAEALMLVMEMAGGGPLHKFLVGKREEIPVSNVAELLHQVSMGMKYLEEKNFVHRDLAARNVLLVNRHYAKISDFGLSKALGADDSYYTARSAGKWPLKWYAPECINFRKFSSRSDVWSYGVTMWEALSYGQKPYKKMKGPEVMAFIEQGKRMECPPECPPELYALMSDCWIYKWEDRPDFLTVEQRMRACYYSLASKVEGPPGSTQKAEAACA

[18] = target: Interleukin-1 receptor-associated kinase 3 (Homo sapiens) (UniProt Q9Y616); settings: Compound concentration 100.0 nM
[19] = tested on: Mast/stem cell growth factor receptor Kit (Homo sapiens), P10721 [V559D,V654A]; settings: Compound concentration 100.0 nM
Sequence of Mast/stem cell growth factor receptor Kit (Homo sapiens), P10721 [V559D,V654A] (P10721 whole entry V559D/V654A): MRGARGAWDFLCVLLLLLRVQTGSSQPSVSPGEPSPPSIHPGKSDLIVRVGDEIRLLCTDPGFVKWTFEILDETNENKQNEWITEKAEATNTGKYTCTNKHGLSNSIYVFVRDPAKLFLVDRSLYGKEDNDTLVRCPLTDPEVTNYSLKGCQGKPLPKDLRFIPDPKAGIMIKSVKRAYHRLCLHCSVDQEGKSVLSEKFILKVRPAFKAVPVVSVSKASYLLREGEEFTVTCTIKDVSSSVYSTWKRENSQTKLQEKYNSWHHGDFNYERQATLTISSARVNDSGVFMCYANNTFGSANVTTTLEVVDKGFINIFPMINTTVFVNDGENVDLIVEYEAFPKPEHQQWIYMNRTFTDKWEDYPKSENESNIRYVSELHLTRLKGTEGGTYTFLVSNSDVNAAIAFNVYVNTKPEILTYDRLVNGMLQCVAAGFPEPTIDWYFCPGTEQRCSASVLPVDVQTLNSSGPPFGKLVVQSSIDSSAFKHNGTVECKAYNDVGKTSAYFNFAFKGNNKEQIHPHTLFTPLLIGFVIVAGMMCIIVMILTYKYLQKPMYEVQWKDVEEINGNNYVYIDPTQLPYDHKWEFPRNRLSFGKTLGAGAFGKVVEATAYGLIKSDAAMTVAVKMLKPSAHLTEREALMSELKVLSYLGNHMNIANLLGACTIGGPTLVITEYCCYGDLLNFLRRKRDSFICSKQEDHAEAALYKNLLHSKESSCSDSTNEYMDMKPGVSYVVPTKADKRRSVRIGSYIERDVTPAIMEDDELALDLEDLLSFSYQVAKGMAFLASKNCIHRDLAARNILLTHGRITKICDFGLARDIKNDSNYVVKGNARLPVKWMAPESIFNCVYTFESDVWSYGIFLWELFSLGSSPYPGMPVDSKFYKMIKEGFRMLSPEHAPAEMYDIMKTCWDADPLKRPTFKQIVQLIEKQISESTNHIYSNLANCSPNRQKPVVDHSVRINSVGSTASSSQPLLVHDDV

[20] = target: Cyclin-dependent kinase 4 (Homo sapiens) (UniProt P11802); settings: Compound concentration 100.0 nM
Sequence of Cyclin-dependent kinase 4 (Homo sapiens) (P11802 whole entry): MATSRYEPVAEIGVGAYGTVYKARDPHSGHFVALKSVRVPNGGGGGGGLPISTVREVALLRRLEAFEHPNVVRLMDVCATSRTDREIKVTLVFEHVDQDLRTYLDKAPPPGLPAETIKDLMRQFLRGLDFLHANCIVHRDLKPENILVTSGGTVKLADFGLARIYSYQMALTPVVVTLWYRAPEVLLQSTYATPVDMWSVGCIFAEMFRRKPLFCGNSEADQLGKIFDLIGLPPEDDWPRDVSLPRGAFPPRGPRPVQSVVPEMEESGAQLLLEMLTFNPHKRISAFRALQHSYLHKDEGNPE

[21] = target: Megakaryocyte-associated tyrosine-protein kinase (Homo sapiens) (UniProt P42679); settings: Compound concentration 100.0 nM
[22] = target: Non-receptor tyrosine-protein kinase TYK2 (Homo sapiens) (UniProt P29597); settings: Compound concentration 100.0 nM
Sequence of Non-receptor tyrosine-protein kinase TYK2 (Homo sapiens) (P29597 whole entry): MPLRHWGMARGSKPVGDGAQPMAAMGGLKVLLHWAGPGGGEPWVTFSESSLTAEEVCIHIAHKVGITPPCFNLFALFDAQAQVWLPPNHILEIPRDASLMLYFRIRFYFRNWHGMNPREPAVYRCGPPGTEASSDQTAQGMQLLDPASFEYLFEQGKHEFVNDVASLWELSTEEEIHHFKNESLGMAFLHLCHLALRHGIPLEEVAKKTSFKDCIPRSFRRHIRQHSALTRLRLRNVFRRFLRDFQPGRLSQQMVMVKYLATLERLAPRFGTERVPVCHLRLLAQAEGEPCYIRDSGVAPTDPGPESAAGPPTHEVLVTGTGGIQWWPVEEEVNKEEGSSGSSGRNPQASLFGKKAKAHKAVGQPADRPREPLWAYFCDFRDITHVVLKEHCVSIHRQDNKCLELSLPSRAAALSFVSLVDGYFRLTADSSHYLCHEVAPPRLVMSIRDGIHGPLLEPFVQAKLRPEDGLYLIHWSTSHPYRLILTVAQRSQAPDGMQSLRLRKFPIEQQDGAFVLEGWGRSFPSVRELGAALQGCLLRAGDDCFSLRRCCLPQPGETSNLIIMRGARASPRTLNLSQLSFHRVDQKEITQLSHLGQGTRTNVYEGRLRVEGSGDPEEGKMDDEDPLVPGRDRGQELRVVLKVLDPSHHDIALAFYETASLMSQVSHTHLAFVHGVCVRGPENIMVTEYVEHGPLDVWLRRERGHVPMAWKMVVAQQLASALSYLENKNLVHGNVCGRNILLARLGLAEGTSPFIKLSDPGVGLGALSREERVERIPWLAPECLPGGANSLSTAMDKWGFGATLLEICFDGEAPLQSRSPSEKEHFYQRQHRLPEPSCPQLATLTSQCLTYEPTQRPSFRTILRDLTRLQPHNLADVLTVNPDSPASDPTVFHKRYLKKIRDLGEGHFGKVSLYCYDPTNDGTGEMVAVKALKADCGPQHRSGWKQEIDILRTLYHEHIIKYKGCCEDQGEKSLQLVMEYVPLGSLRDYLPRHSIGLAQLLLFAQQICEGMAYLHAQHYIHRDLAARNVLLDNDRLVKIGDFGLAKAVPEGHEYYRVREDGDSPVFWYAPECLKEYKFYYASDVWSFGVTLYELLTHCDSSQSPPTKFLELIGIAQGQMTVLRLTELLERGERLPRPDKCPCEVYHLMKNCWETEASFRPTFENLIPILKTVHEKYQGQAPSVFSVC

[23] = target: Dual specificity mitogen-activated protein kinase kinase 7 (Homo sapiens) (UniProt O14733); settings: Compound concentration 100.0 nM
Sequence of Dual specificity mitogen-activated protein kinase kinase 7 (Homo sapiens) (O14733 whole entry): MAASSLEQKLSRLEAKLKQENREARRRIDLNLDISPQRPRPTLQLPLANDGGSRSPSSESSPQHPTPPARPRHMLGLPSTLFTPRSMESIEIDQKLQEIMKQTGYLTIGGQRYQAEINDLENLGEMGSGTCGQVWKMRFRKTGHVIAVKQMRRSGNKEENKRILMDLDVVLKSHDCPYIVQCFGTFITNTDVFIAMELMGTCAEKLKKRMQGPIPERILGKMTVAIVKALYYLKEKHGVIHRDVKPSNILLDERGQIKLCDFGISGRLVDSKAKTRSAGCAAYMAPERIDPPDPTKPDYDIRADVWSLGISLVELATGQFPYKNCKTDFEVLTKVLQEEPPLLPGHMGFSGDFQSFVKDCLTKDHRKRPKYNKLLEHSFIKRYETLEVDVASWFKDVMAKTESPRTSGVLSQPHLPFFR

[24] = target: Glycogen synthase kinase-3 beta (Homo sapiens) (UniProt P49841); settings: Compound concentration 100.0 nM
[25] = target: 3-phosphoinositide-dependent protein kinase 1 (Homo sapiens) (UniProt O15530); settings: Compound concentration 100.0 nM
Sequence of 3-phosphoinositide-dependent protein kinase 1 (Homo sapiens) (O15530 whole entry): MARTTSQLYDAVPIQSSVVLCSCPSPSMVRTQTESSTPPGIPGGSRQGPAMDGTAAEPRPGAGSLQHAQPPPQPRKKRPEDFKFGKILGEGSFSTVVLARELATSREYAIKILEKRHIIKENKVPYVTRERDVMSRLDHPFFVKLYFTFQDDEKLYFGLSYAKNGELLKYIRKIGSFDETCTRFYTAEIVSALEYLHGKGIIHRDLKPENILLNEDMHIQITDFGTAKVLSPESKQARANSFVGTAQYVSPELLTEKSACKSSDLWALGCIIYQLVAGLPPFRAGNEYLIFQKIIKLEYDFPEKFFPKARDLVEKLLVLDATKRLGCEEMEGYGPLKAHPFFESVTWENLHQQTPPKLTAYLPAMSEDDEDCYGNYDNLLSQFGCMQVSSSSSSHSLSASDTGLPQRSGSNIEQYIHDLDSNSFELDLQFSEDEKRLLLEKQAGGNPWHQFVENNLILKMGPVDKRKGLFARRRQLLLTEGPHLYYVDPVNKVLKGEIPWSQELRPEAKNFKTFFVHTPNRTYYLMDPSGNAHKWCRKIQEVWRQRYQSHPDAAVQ

[26] = target: Tyrosine-protein kinase Fes/Fps (Homo sapiens) (UniProt P07332); settings: Compound concentration 100.0 nM
[27] = target: Casein kinase II subunit alpha' (Homo sapiens) (UniProt P19784); settings: Compound concentration 100.0 nM
[28] = target: Testis-specific serine/threonine-protein kinase 3 (Homo sapiens) (UniProt Q96PN8); settings: Compound concentration 100.0 nM
Sequence of Testis-specific serine/threonine-protein kinase 3 (Homo sapiens) (Q96PN8 whole entry): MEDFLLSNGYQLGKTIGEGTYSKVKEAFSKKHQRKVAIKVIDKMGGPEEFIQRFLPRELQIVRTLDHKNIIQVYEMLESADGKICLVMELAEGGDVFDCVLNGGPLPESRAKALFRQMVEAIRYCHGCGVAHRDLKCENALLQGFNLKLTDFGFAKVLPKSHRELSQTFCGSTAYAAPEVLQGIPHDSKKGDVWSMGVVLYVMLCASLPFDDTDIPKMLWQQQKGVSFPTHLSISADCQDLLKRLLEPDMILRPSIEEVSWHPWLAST

[29] = target: Mitogen-activated protein kinase kinase kinase 5 (Homo sapiens) (UniProt Q99683); settings: Compound concentration 100.0 nM
[30] = target: Protein kinase C delta type (Homo sapiens) (UniProt Q05655); settings: Compound concentration 100.0 nM
[31] = target: Serine/threonine-protein kinase 32C (Homo sapiens) (UniProt Q86UX6); settings: Compound concentration 100.0 nM
[32] = target: Platelet-derived growth factor receptor alpha (Homo sapiens) (UniProt P16234); settings: Compound concentration 100.0 nM
[33] = target: Testis-specific serine/threonine-protein kinase 1 (Homo sapiens) (UniProt Q9BXA7); settings: Compound concentration 100.0 nM
[34] = target: Ephrin type-A receptor 8 (Homo sapiens) (UniProt P29322); settings: Compound concentration 100.0 nM
[35] = target: 1-phosphatidylinositol 3-phosphate 5-kinase (Homo sapiens) (UniProt Q9Y2I7); settings: Compound concentration 100.0 nM
[36] = target: Cyclin-dependent kinase 15 (Homo sapiens) (UniProt Q96Q40); settings: Compound concentration 100.0 nM
[37] = target: RAC-beta serine/threonine-protein kinase (Homo sapiens) (UniProt P31751); settings: Compound concentration 100.0 nM

Sequence of MAP kinase-activated protein kinase 5 (Homo sapiens) (Q8IW41 whole entry): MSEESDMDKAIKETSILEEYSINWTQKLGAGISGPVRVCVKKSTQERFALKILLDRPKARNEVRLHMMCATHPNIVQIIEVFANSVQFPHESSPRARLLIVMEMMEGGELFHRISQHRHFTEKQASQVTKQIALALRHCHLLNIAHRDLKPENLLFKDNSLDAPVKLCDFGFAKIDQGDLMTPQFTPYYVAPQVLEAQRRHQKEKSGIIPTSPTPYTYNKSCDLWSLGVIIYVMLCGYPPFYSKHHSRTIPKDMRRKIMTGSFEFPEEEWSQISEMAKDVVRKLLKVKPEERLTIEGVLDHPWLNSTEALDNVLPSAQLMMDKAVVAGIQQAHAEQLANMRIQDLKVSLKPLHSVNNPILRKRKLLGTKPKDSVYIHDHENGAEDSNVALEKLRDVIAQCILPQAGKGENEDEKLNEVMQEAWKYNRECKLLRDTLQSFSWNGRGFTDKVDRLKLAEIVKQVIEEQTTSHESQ

Cn1nc(C(=O)NCc2ccc(C(=O)O)cc2)cc1-c1ccc2[nH]ccc2c1 [BI 4395]
inactive: residual activity [1] 89% | residual activity [2] 89% | residual activity [3] 96% | residual activity [4] 85% | residual activity [5] 80% | residual activity [6] 91% | inhibition [7] -7.92% | residual activity [8] 79% | residual activity [9] 81% | inhibition [10] 2.9% | inhibition [11] 1.67% | residual activity [12] 91% | residual activity [13] 83% | residual activity [14] 85% | residual activity [15] 79% | residual activity [16] 91% | residual activity [17] 82% | residual activity [18] 83% | residual activity [19] 95% | residual activity [20] 84% | residual activity [21] 86% | residual activity [22] 94% | residual activity [23] 95% | residual activity [24] 78% | residual activity [25] 100% | residual activity [26] 95% | residual activity [27] 100% | residual activity [28] 97% | residual activity [29] 86% | residual activity [30] 89% | residual activity [31] 100% | residual activity [32] 100% | residual activity [33] 100% | residual activity [34] 92% | residual activity [35] 100% | residual activity [36] 95% | residual activity [37] 96%

CCOC(=O)c1cc2cc(-c3cc(C(=O)NCc4ccc(C(=O)O)cc4)nn3C)ccc2[nH]1 [BI 4394]
inactive: residual activity [1] 92% | residual activity [2] 86% | residual activity [3] 86% | residual activity [4] 75% | residual activity [5] 95% | residual activity [6] 100% | inhibition [7] -7.04% | residual activity [8] 87% | residual activity [9] 96% | inhibition [10] 0.37% | inhibition [11] 2.74% | residual activity [12] 100% | residual activity [13] 100% | residual activity [14] 94% | residual activity [15] 76% | residual activity [16] 100% | residual activity [17] 98% | residual activity [18] 100% | residual activity [19] 100% | residual activity [20] 82% | residual activity [21] 96% | residual activity [22] 91% | residual activity [23] 97% | residual activity [24] 95% | residual activity [25] 92% | residual activity [26] 94% | residual activity [27] 87% | residual activity [28] 91% | residual activity [29] 98% | residual activity [30] 90% | residual activity [31] 100% | residual activity [32] 86% | residual activity [33] 100% | residual activity [34] 100% | residual activity [35] 100% | residual activity [36] 93% | residual activity [37] 100%
